Source: patent US20220324912A1, “THERAPEUTIC PEPTIDES” (COHBAR, INC., priority 2019, published 2022)
Non-standard residues stand in square brackets, D forms with d. No end group written: not given here.

Key:
[1] = test system: 3T3-L1 mouse adipocytes; assay: Free Fatty Acid Levels in 3T3-L1 Mouse Adipocytes (Example 12, 10 μM); type: cell-based; settings: peptides 10 μM, 20-22 hours then 3 hours with isoproterenol 1 nM, 3T3-L1 mouse adipocytes
Procedure: The effect of the peptides on fatty acid metabolism can be assessed using an assay of free fatty acid levels in cultured cells such as mouse adipocytes. Peptides were initially prepared as 10 mM stock in DMSO, diluted to 1 mM in H2O, and used at a final concentration of 10 μM (0.1% DMSO). […] After 20-22 hours, 1 nM isoproterenol was added to all wells except untreated controls and test peptides were replenished. Insulin at 100 nM was added to control wells. […] Free fatty acid concentrations in the media were determined using a Free Fatty Acid Assay kit (Zen-Bio) according to the manufacturer's instructions using a Cytation 3 plate reader at 540 nm (BioTek, Winooski, Vt.). Absorbance values were corrected for untreated background and expressed relative to isoproterenol treated cells. Treatment with isoproterenol (1 nM) alone was used as the free fatty acid level stimulatory control. The relative standard deviation of the isoproterenol control was <10%. […] Free fatty acid levels for insulin (100 nM) treatment were <5% of the isoproterenol control value.

[2] = test system: C2C12 cells; assay: Cellular ROS Levels Induced by TBHP in C2C12 Cells (DCFDA); type: cell-based, mouse; settings: peptides 10 μM, 18-20 hours, then TBHP 100 μM 1 hour, relative to TBHP control
Procedure: The protective or synergistic effect of the peptides on cellular levels of reactive oxygen species (ROS) induced by oxidative stress can be assessed using an assay of ROS in cultured cells such as mouse myoblasts exposed to a suitable oxidative stress. Peptides were initially prepared as 10 mM stock in DMSO, diluted to 1 mM in H2O, and added at a final concentration of 10 μM (0.1% DMSO). […] TBHP was used at final concentration of 100 μM. Sulforaphane at final concentration of 10 µM was used as a protective control against TBHP induced ROS production. […] C2C12 cells were grown in DMEM supplemented with 20% FBS with 100 IU/ml penicillin and 100 μg/ml streptomycin. […] C2C12 cells were seeded at 7,500 cells per well on 96-well plates. […] After 18-20 hours of incubation the cells were loaded with DCFDA for 45 min. TBHP at 100 μM was then added to the appropriate wells for 1 hour. ROS activity was determined using a DCFDA Cellular ROS Detection Assay kit (Abcam, Cambridge, Mass.) according to the manufacturer's instructions. Fluorescence in each sample well on the plate was measured using a Cytation 3 plate reader at Ex/Em=485/535 nm (BioTek, Winooski, Vt.). Activity was calculated relative to TBHP control. The relative standard deviation of the sulforaphane control was <20%. The ROS level produced by the sulforaphane control in the presence of TBHP was 52% of the TBHP control.

[3] = test system: Caspase 3/7 in C2C12 cells; assay: Caspase 3/7 Activity in C2C12 Cells; type: cell-based, mouse; settings: peptides 10 μM, 24 hours, relative to 0.1% DMSO control
Procedure: The effect of the peptides on cell death/survival can be assessed using a caspase-3/7 assay in cultured cells such as mouse myoblast cells. Peptides were initially prepared as 10 mM stock in DMSO, diluted to 1 mM in H2O, and used at a final concentration of 10 μM (0.1% DMSO). […] Staurosporine (Abcam, Cambridge, Mass.) was dissolved at 10 mM in DMSO as a stock solution. Caspase-Glo 3/7 Assay Reagent was purchased from Promega (Madison, Wis.). C2C12 cell line was purchased from American Type Culture Collection (Manassas, Va.). C2C12 cells were grown in DMEM supplemented with 20% FBS with 100 IU/ml penicillin and 100 μg/ml streptomycin. Cultures were maintained at 37° C. in a humidified atmosphere of 5% CO2/95% air. C2C12 cells were seeded at 4,000 cells per well on 96-well plates. The next day cells were incubated with test peptides at 10 μM or staurosporine at concentrations between 100 nM and 5 nM using a final concentration of 0.1% DMSO and maintained at 37° C. in a humidified atmosphere of 5% CO2/95% air for 24 hours. Caspase 3/7 activity was determined using a Caspase-Glo 3/7 Assay kit according to the manufacturer's instructions. Luminescence for each sample well on the plate was measured using a Cytation 3 plate reader (BioTek, Winooski, Vt.). Activity was calculated relative to 0.1% DMSO control.

[4] = test system: C2C12 cells; assay: ATP Levels in Cultured C2C12 Cells (CellTiter-Glo); type: cell-based, mouse; settings: peptides 10 μM, 3 days with readdition every 24 hours, relative to 0.1% DMSO control
Procedure: The effect of the peptides on cellular metabolism can be assessed using an assay of ATP levels in cultured cells such as mouse myoblast cells. Peptides were initially prepared as 10 mM stock in DMSO, diluted to 1 mM in H2O, and used at a final concentration of 10 μM (0.1% DMSO). […] Lovastatin was prepared as 10 mM stock in 70% Ethanol and used at final concentration of 10 µM containing 0.1% DMSO. CellTiter-Glo® Assay kit was purchased from Promega (Madison, Wis.). […] C2C12 cells were grown in DMEM medium supplemented with 20% FBS with 100 IU/ml penicillin and 100 μg/ml streptomycin. […] C2C12 cells were seeded at 800 cells per well on 96-well plates. […] ATP levels were determined using a CellTiter-Glo Assay kit according to the manufacturer's instructions. Luminescence for each sample well on the plate was measured using a Cytation 3 plate reader (BioTek, Winooski, Vt.). Activity was calculated relative to 0.1% DMSO treated control. The relative standard deviation of the result for the 0.1% DMSO treated control was <5%. […] ATP levels for treatment with lovastatin (10 μM) were <50% of the 0.1% DMSO treated control value.

[5] = test system: C2C12 cells; assay: Cell Proliferation in C2C12 Cells (Cyquant DNA dye); type: cell-based, mouse; settings: peptides 10 μM, 72 hours with readdition every 24 hours, relative to 0.1% DMSO control
Procedure: The effect of the peptides on cell proliferation was assessed using a DNA dye binding assay in cultured cells such as mouse myoblast cells. Peptides were initially prepared as 10 mM stock in DMSO, diluted to 1 mM in H2O, and added at a final concentration of 10 μM (0.1% DMSO). Lovastatin was used as a growth arrest control at final concentration of […]. […] C2C12 cells were grown in DMEM supplemented with 20% FBS with 100 IU/ml penicillin and 100 μg/ml streptomycin. […] C2C12 cells were seeded at 800 cells per well on 96-well plates. […] Cell proliferation was determined using Cyquant Direct Nucleic Acid Stain (Thermo Fisher Scientific, Waltham, Mass.) according to the manufacturer's instructions. Fluorescence for each sample well on the plate was measured using a Cytation 3 plate reader at Ex/Em=495/535 nm (BioTek, Winooski, Vt.). Activity was calculated relative to 0.1% DMSO untreated control. The relative standard deviation for the lovastatin control was <27%. The cell proliferation for the lovastatin control was <25% of the value for untreated control.

[6] = test system: DIO mice; assay: Metabolic parameters in DIO mice, twice daily intraperitoneal, 10 days (Example 16); type: in vivo, mouse; settings: 5 mg/kg, male DIO mice
Procedure: Male C57BL/6 mice were maintained on a high fat diet for 18 weeks to develop diet induced obesity. Animals were randomized to treatment groups based on blood glucose levels and body weight. The peptides of the invention were administered to groups of male DIO mice twice daily by intraperitoneal injection at a dose of 5 mg/kg/dose for 10 days (N=8 animals per treatment group). An additional group of male DIO mice (n=8) received vehicle (water) alone administered twice daily by intraperitoneal injection. Body weight, blood glucose levels and food intake were monitored. Body mass distribution (fat vs lean) was determined by quantitative whole body NMR prior to dosing and at the end of dosing.

Substance | Free fatty acid levels, Percent of Isoproterenol Control Activity [1] [%] | Cellular ROS levels induced by TBHP, Percent of Control [2] [%] | Caspase 3/7 activity, Percent of Control Activity [3] [%] | ATP levels, Percent of Control Activity [4] [%] | Cell proliferation, Percent of Control [5] [%] | Difference from Vehicle Control: Decrease from Baseline in Blood Glucose [6] [mg/dL] | Difference from Vehicle Control: Decrease from Baseline in Body Weight [6] [%] | Difference from Vehicle Control: Decrease from Baseline in Fat Mass [6] [g]
17 (GS[dA]ILTNPVLGWVWV) [compound 17] | 88.5 | 100.8 | 97.1 | 103.8 | 110.0 |  |  | 
15 (LPGS[dA]ILTNPVLGWVWV) [compound 15] | 92.8 | 101.5 | 105.6 | 101.6 | 115.1 |  |  | 
18 (S[dA]ILTNPVLGWVWV) [compound 18] | 95.9 | 100.7 | 97.0 | 103.2 | 101.7 |  |  | 
16 (PGS[dA]ILTNPVLGWVWV) [compound 16] | 97.2 | 106.0 | 99.7 | 102.7 | 100.3 |  |  | 
11 (RLPGSAILTNPVL[dA]WVWV) [compound 11] | 47.2 | 103.5 | 98.7 | 100.7 | 98.1 | 4.76 | −1.81 | -1.09
